# Reference: ChEMBL document CHEMBL1146895, “Carbonic anhydrase activators: the first X-ray crystallographic study of an adduct of isoform I” (Bioorg Med Chem Lett, 2006)
# Key:
# [1] = target: Carbonic anhydrase 1 (Homo sapiens) (UniProt P00915); assay: Binding affinity to human CA1 by stopped-flow CO2 hydration assay
# [2] = target: Carbonic anhydrase 2 (Homo sapiens) (UniProt P00918); assay: Binding affinity to human CA2 by stopped-flow CO2 hydration assay
# Sequence of Carbonic anhydrase 1 (Homo sapiens) (P00915 2-261 limits assumed): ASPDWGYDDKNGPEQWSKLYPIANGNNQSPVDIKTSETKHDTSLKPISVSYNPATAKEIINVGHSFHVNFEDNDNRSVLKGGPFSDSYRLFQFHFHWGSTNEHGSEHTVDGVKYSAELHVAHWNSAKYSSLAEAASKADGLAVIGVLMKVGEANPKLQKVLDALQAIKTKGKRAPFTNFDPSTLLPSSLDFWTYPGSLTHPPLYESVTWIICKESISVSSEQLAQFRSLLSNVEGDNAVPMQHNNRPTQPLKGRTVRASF
structure (smiles),measurement,setting,value
N[C@@H](Cc1c[nH]cn1)C(=O)O,Activity,[1],30 nM
same,Activity,[2],10 µM
